Source: ChEMBL document CHEMBL1201862, “PubChem BioAssay data set” (2004)
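In this assay, cells in 96-well plates receive the compound at five concentrations for 48 hours. Endpoints are linearly interpolated between the surrounding concentrations. GI50 marks 50% less growth.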 Activity calls are given as the source filed them. No stated cut-off is given here; in the data, active = GI50 up to about 1.1 µM and inactive = higher.

Columns and labels:
Assay in all cases: inhibition of tumour cell growth, NCI panel, 48 h
[1] = tested on: SK-MEL-28
[2] = tested on: HT-29
[3] = tested on: CCRF-CEM
[4] = tested on: SK-OV-3
[5] = tested on: K562
[6] = tested on: NCI-H23
[7] = tested on: SF-539
[8] = tested on: SF-268
[9] = tested on: CAKI-1
[10] = tested on: HL-60
[11] = tested on: SW-620
[12] = tested on: HCT-15
[13] = tested on: LOX IMVI
[14] = tested on: SK-MEL-2
[15] = tested on: UACC-257
[16] = tested on: HCT-116
[17] = tested on: OVCAR-5

| SMILES | GI50 [1] | GI50 [2] | GI50 [3] | GI50 [4] | GI50 [5] | GI50 [6] | GI50 [7] | GI50 [8] | GI50 [9] | GI50 [10] | GI50 [11] | GI50 [12] [µM] | GI50 [13] | GI50 [14] | GI50 [15] | GI50 [16] | GI50 [17] |
| --- | --- | --- | --- | --- | --- | --- | --- | --- | --- | --- | --- | --- | --- | --- | --- | --- | --- |
| C#CCN(Cc1ccc2nc(-c3ccccc3)c(Cl)nc2c1)c1cc(OC)c(OC)c(OC)c1 | > 100 µM (inactive) | > 100 µM (inactive) | 37.2 µM (inactive) | > 100 µM (inactive) | 20.1 µM (inactive) | > 100 µM (inactive) | > 100 µM (inactive) | 40.4 µM (inactive) | > 100 µM (inactive) | 57.9 µM (inactive) | 15 µM (inactive) | > 100 | 14.8 µM (inactive) | > 100 µM (inactive) | 39.2 µM (inactive) | 40.5 µM (inactive) | > 100 µM (inactive) |
| COC(=O)C(C)Oc1ccc(O)cc1 (stereo unspecified) | 29.2 µM (inactive) | > 100 µM (inactive) | > 100 µM (inactive) | > 100 µM (inactive) | > 100 µM (inactive) | > 100 µM (inactive) | > 100 µM (inactive) | 20.6 µM (inactive) | > 100 µM (inactive) | > 100 µM (inactive) | 34.9 µM (inactive) | > 100 | – | – | > 100 µM (inactive) | 20.9 µM (inactive) | > 100 µM (inactive) |
| COC[n+]1cc2cc(OC)c(OC)cc2c2ccc3cc(OC)c(OC)cc3c21 | > 100 µM (inactive) | > 100 µM (inactive) | 98.2 µM (inactive) | – | > 100 µM (inactive) | > 100 µM (inactive) | > 100 µM (inactive) | > 100 µM (inactive) | > 100 µM (inactive) | > 100 µM (inactive) | > 100 µM (inactive) | > 100 | > 100 µM (inactive) | > 100 µM (inactive) | > 100 µM (inactive) | > 100 µM (inactive) | > 100 µM (inactive) |
| CN(C)CC(/C(Cc1ccccc1)=N\NC(=O)c1ccncc1)c1ccccc1 (stereo unspecified) | 45.9 µM (inactive) | 41 µM (inactive) | 17.2 µM (inactive) | 38 µM (inactive) | 31.2 µM (inactive) | 46.8 µM (inactive) | 43.7 µM (inactive) | 33.4 µM (inactive) | 44.3 µM (inactive) | 4.17 µM (inactive) | 35.8 µM (inactive) | – | 30.2 µM (inactive) | 18.9 µM (inactive) | 32.3 µM (inactive) | – | 83.8 µM (inactive) |
| N#Cc1cccnc1Cl | > 100 µM (inactive) | > 100 µM (inactive) | > 100 µM (inactive) | > 100 µM (inactive) | > 100 µM (inactive) | > 100 µM (inactive) | > 100 µM (inactive) | > 100 µM (inactive) | > 100 µM (inactive) | > 100 µM (inactive) | > 100 µM (inactive) | > 100 | > 100 µM (inactive) | > 100 µM (inactive) | > 100 µM (inactive) | – | > 100 µM (inactive) |
| O=C1Cc2ccccc2N1/N=C\c1ccc(O)cc1 | > 100 µM (inactive) | > 100 µM (inactive) | 11.5 µM (inactive) | > 100 µM (inactive) | 61.4 µM (inactive) | 71.1 µM (inactive) | 95.7 µM (inactive) | 50.6 µM (inactive) | > 100 µM (inactive) | – | > 100 µM (inactive) | 91 | > 100 µM (inactive) | > 100 µM (inactive) | 47 µM (inactive) | > 100 µM (inactive) | > 100 µM (inactive) |
| O=C(/C=C/c1ccccc1O)c1ccc([N+](=O)[O-])cc1 | 16.1 µM (inactive) | 19.9 µM (inactive) | 15.8 µM (inactive) | 26.8 µM (inactive) | 20.9 µM (inactive) | 11.3 µM (inactive) | 15.4 µM (inactive) | 18 µM (inactive) | 18.5 µM (inactive) | 16.4 µM (inactive) | 16.6 µM (inactive) | 17 | 15.8 µM (inactive) | 19.8 µM (inactive) | 53.3 µM (inactive) | 15.6 µM (inactive) | 22.1 µM (inactive) |
| CC(C)COC(=O)c1ccc(/N=C\c2ccc(/C=N/c3ccc(C(=O)OCC(C)C)cc3)cc2)cc1 | > 100 µM (inactive) | > 100 µM (inactive) | – | > 100 µM (inactive) | > 100 µM (inactive) | 96.6 µM (inactive) | > 100 µM (inactive) | > 100 µM (inactive) | > 100 µM (inactive) | > 100 µM (inactive) | > 100 µM (inactive) | > 100 | > 100 µM (inactive) | > 100 µM (inactive) | > 100 µM (inactive) | – | > 100 µM (inactive) |
| COc1cc(/C=C(\NC(=O)c2ccccc2)c2nc3cncnc3[nH]2)cc(OC)c1OC | > 100 µM (inactive) | > 100 µM (inactive) | > 100 µM (inactive) | > 100 µM (inactive) | > 100 µM (inactive) | > 100 µM (inactive) | > 100 µM (inactive) | > 100 µM (inactive) | > 100 µM (inactive) | > 100 µM (inactive) | > 100 µM (inactive) | > 100 | – | > 100 µM (inactive) | – | – | > 100 µM (inactive) |
